Assay results published in patent publication US10238713B2, “Cyclic tetrapeptides and therapeutic applications thereof” (LODZ UNIVERSITY OF TECHNOLOGY, priority 2010, dated 2019).
Where two headings read alike, the source gives them in different places. Non-standard residues stand in square brackets, D forms with d. Residues, ends and D or L forms follow the SMILES beside them. d(β3hF) = N[C@@H](CC(=O)O)Cc1ccccc1; β3hF = N[C@H](CC(=O)O)Cc1ccccc1

Legend:
[1] = tested on: PHA-induced proliferation of human peripheral blood mononuclear cells (PBMC); assay: Proliferative response of PBMC to PHA (MTT); assay type: cell-based; conditions: four-day incubation
Experimental: PBMC were isolated by centrifugation on Ficoll-uropoline gradient (density 1.077 g/ml) (Lymphoprep; PAA Laboratories), at 800×g for 20 min at 4° C. The interphase cells, consisting of lymphocytes (20%) and monocytes (80%) were then washed three times with Hanks' medium and re-suspended in the culture medium at density of 2×10^6 cells/ml.
The isolated PBMC were distributed into 96-well flat-bottom plates in 100 μl aliquots (2×10^5 cells/well). PHA was used at concentration of 5 μg/ml. The compounds were tested at concentrations of 1, 10 and 100 μg/ml. DMSO at appropriate dilutions served as control. After a four-day incubation in a cell culture incubator, the proliferative response of cells was determined by the colorimetric MTT method (Hansen et al., J. Immunol. Methods, 1989, pp. 203-210). The data are presented as a mean OD value from quadriplicate wells ±standard error (SE). The cultures “Control (−)” contained no mitogen (PHA). The cultures “Control (PHA)” contained PHA but not cyclic tetrapeptides.
Briefly, 25 μl of MTT (5 mg/ml) stock solution was added per well at the end of cell incubation and the plates were incubated for 3 h in a cell culture incubator. Then, 100 μl of the extraction buffer (20% SDS with 50% DMF, pH 4.7) was added. After additional overnight incubation, the optical density was measured at 550 nm (Dynatech 5000).

[2] = tested on: LPS-induced TNF-α production; assay type: cell-based; conditions: Table 2A
Experimental: Human whole blood was diluted 10-fold with RPMI-1640 medium and distributed to 24-well culture plates in 1 ml aliquots. LPS was added to the culture at a concentration of 1 μg/ml. The studied peptides were used at concentrations of 1, 10 and 100 μg/ml. After overnight incubation, the supernatants were harvested and frozen at −20° C. until cytokine determination. TNF-α activity was determined using a bioassay. Briefly, WEHI 164.13 cells (ATCC CRL 1751) were seeded at a concentration of 2×10^4 cells/well in quadriplicate. Increasing dilutions of the assayed supernatant were mixed with the target cells in the presence of actinomycin D (1 μg/ml). After 20 h of incubation, MTT was added into the wells, and the cultures were incubated for an additional 4 h. […] The detection limit of the assay was about 2.5 pg/ml. One unit of TNF-α activity was defined as an inverse of supernatant dilution where 50% cell death took place. The cultures labeled “Control (−)” contained no LPS. The cultures labeled “Control (LPS)” contained LPS and none of the studied compounds. Statistical analysis was not applied since the data derive from single cultures (wells).

human PBMC = assay: Toxicity test: PBMC survival in 24 h culture (MTT); conditions: ANOVA
[3] = tested on: mice, carrageenan-induced foot pad edema; assay: Carrageenan-induced foot-pad edema test; assay type: in vivo, mouse; conditions: 4 h after carrageenan; peptides 250 μg i.p., DEX 25 μg i.p., 30 min before; FIGS. 17A-17C
Experimental: In this and the air-pouch test, 1.5 mg peptide was dissolved in 300 μl of DMSO, then in 0.9% NaCl to achieve the desired dose (250 μg/0.2 ml or 100 μg/0.2 ml). Carrageenan (Sigma) was dissolved in 0.9% aqueous NaCl (overnight). 50 μl of 2% carrageenan solution was injected intradermally into hind foot pads. The peptides were given in a single 250 μg dose (0.2 ml) per mouse intraperitoneally (i.p.), 30 min before carrageenan administration. Dexamethasone (DEX) (Dexaven, Polfa, Poland), a reference drug, was given i.p. in dose 25 μg per mouse. Control mice were administered i.p. appropriately diluted solvent (DMSO in aqueous NaCl) instead of peptides. The foot pads of “background” (BG) mice were injected with 50 μl of 0.9% aqueous NaCl. Foot pad edema was measured with a spring caliper, 2 h, 3 h and 4 h after administration of carrageenan. The results are presented in FIGS. 17A, 17B and 17C as mean values of the antigen-specific increase of the foot pad thickness measured in 5 mice in each experimental group and expressed in mm ±SE (only results from measurements 4 h following administration of carrageenan are presented in figures). Statistics: FIG. 17A: Control vs: DEX P=0.0001; 4B8M P=0.0001; P25 NS (P=1.0000); P28 NS (P=1.0000); P31 NS (P=0.0528); P35 P=0.0008 (ANOVA of Kruskal-Wallis); FIG. 17B: Statistics: Control vs: P22 NS (P=1.0000); P26 NS (P=1.0000); P27 P=0.0050; P30 P=0.0004; P33-b NS (P=1.0000); SP00-b P=0.0001; P00S-b NS (P=1.0000) (ANOVA of Kruskal-Wallis); FIG. 17C: Statistics: Control vs: P21 P=0.0147; P23-2 P=0.0083; P24 P=0.0001; P29 NS (P=0.9999); P32 P=0.0001; P33 NS (P=0.6806); P34 NS (P=0.1920) (ANOVA).

[4] = compound 1 μg/ml, LPS 1 μg/ml, overnight
[5] = compound 100 μg/ml (DMSO only: 196)
[6] = 10 μg/ml, FIGS. 8A-8F (4B8M repeated per figure)
[7] = 100 μg/ml, FIGS. 8A-8F (4B8M repeated per figure)

Row | SMILES | PHA-induced PBMC proliferation, P vs DMSO at appropriate dilution ([1]; 1 μg/ml, FIGS. 9A-9B) | PHA-induced PBMC proliferation, P vs DMSO at appropriate dilution ([1]; 10 μg/ml, FIGS. 9A-9F) | PHA-induced PBMC proliferation, P vs DMSO at appropriate dilution ([1]; 100 μg/ml, FIGS. 9A-9F) | % inhibition vs. DMSO ([2]; compound 1 μg/ml) | TNF-α [2, 4] | % inhibition vs. DMSO ([2]; compound 10 μg/ml) | TNF-α ([2]; compound 10 μg/ml) | % inhibition vs. DMSO ([2]; compound 100 μg/ml) | TNF-α [2, 5] | PBMC survival, P vs DMSO at appropriate dilution (human PBMC; 1 μg/ml, FIGS. 8A-8B) | PBMC survival, P vs DMSO at appropriate dilution (human PBMC; [6]) | PBMC survival, P vs DMSO at appropriate dilution (human PBMC; [7]) | foot pad edema (increase of foot pad thickness), P vs Control [3]
1 | O=C1C[C@@H](Cc2ccccc2)NC(=O)[C@@H]2CCCN2C(=O)[C@@H]2CCCN2C(=O)[C@H](Cc2ccccc2)N1 [I-G] (cyclo(FPP[d(β3hF)])) | 0.9047 | 0.4297 | 0.9970 | 33.1% | 5463 pg/mL | 33.8% | 5302 pg/mL | 70.4% | 58 pg/mL |  |  |  | 
2 | O=C1C[C@H](Cc2ccccc2)NC(=O)[C@H]2CCCN2C(=O)[C@@H]2CCCN2C(=O)[C@H](Cc2ccccc2)N1 [I-H] (cyclo(FP[dP][β3hF])) | 0.5198 | 1.0000 | 0.2037 | 12.8% | 7123 pg/mL | 10.0% | 7203 pg/mL | 43.9% | 110 pg/mL |  |  |  | 
3 | O=C1C[C@H](Cc2ccccc2)NC(=O)[C@@H]2CCCN2C(=O)[C@@H]2CCCN2C(=O)[C@H](Cc2c[nH]c3ccccc23)N1 [I-L] (cyclo(PP[β3hF]W)) |  |  |  |  |  |  |  |  |  | 0.9999 | 1.0000 | 0.9957 | 
4 | CC(C)(C)Oc1ccc(C[C@H]2CC(=O)N[C@@H](Cc3ccccc3)C(=O)N3CCC[C@H]3C(=O)N3CCC[C@H]3C(=O)N2)cc1 [I-AF] |  | 0.9850 | 0.0010 |  |  |  |  |  |  |  | 1.0000 | 0.0090 | 1.0000
5 | O=C1C[C@@H](Cc2ccccc2)NC(=O)[C@H]2CCCN2C(=O)[C@H]2CCCN2C(=O)[C@@H](Cc2ccccc2)N1 [I-J] (cyclo([d(β3hF)][dF][dP][dP])) | 1.0000 | 1.0000 | 0.1257 | 1.6% | 8033 pg/mL | 4.4% | 7658 pg/mL | 0.0% | 203 pg/mL |  |  |  | 
6 | O=C1C[C@H](Cc2ccccc2)NC(=O)[C@H]2CCCN2C(=O)[C@H]2CCCN2C(=O)[C@@H](Cc2ccccc2)N1 [I-E] (cyclo([dF][dP][dP][β3hF])) | 1.0000 | 1.0000 | 0.9982 | 19.0% | 6614 pg/mL | 20.7% | 6346 pg/mL | 10.2% | 176 pg/mL |  |  |  | 
